Measured values taken from PubChem BioAssay AID1919000 (Molecular Pharmacology Branch, DTP, NCI, 2023).
“And” between values parts separate entries of the source, which are not always exact repeats. Identical values can stand only once.

System: 653999-131-R-J2-PDC complex spheroids, growth % test/control
Test: Anticancer human tumor 653999-131-R-J2-PDC patient-derived lung adenocarcinoma cell line growth inhibition [AhR]
Conditions: for viability, T/C: stronger effect = lower value
Source text: Multicellular complex tumor spheroid response to aryl hydrocarbon receptor antagonists in combination with a variety of drugs and investigational agents in selected tumor cell lines
The current study was undertaken to assess response to aryl hydrocarbon receptor antagonists in combination with standard-of-care drugs and investigational agents in solid tumor complex spheroid models. Complex spheroids include a stromal component modeled by human endothelial cells (HUVEC) and fibroblasts modeled by human mesenchymal stem cells (MSCs). The concentration ranges selected for each drug and investigational agent were based upon clinically achievable concentrations if the clinical Cmax of the agent was known.
Compounds. The drugs and investigational agents: BAY 2416964 (NSC825713), GNF351 (NSC835774), CH-223191 (NSC835775), CPI-455 (NSC825282), aza-TdCyd (NSC777586), decitabine (NSC127716), belinostat (NSC758774), entinostat (NSC756642), pevonedistat (NSC761192), tazemetostat (NSC777109), talazoparib (NSC765396), olaparib (NSC753686), selinexor (NSC780203), nedisertib (M3814, NSC802822), bortezomib (NSC756655), venetoclax (NSC766270), doxorubicin (NSC123127), elimusertib (BAY189344, NSC800525), ceralasertib (AZD6738, NSC777638), TAK-243 (NSC785004), alisertib (NSC759677), etoposide (NSC141540), topotecan (NSC609699), eribulin (NSC707389), gemcitabine (NSC613327), carboplatin (NSC241240), cisplatin (NSC119875), and SN-38 (NSC673596) were obtained from the National Cancer Institute (NCI) Developmental Therapeutics Program Chemical Repository (32). The FDA-approved anticancer drug set is available from the Developmental Therapeutics Program at https://dtp.cancer.gov/organization/dscb/obtaining/available plates.htm. […] The stock solutions were prepared in dimethyl sulfoxide (DMSO, Sigma-Aldrich, St. Louis, MO, cat. D2650), except for the platinum compounds which were prepared in saline (Quality Biological, Gaithersburg, MD, cat. 114-055-101), at 800-fold the tested concentration and stored at -70 degrees C prior to their use. All drugs and investigational agents were tested over a range starting from a high concentration at or near the clinical Cmax and decreasing in half-log increments. If the clinical Cmax for an agent had not been determined, the highest concentration tested was 10 microM (Table 1).
Cell Culture. All cells were maintained in an incubator at 37 degrees C and 5% CO2 with 95% humidity. The PDC lines were cultured according to standard operating procedures established by the NCI PDMR (https://pdmr.cancer.gov). Briefly, all PDCs were thawed and cultured in Matrigel-coated flasks prepared with a working solution of 1X Ham's F-12 nutrient mix, without supplementation (Invitrogen, Waltham, MA, cat. 11765054), 100 U/mL penicillin-streptomycin (Invitrogen, cat. 15140122), and 2.5% Matrigel (Corning Inc., Corning, NY, cat. 354248) for the first three passages. All PDCs were cultured in complete DMEM/F-12 media containing advanced DMEM/F-12 (Invitrogen, cat. 12634028), 4.9% defined fetal bovine serum, heat inactivated (HyClone Laboratories Inc., Logan, UT, cat. SH30070.03HI), 389 ng/mL hydrocortisone (Sigma-Aldrich, cat. H4001), 9.7 ng/mL human EGF recombinant protein (Invitrogen, cat. PHG0313), 23.4 microg/mL adenine (Sigma-Aldrich, cat. A2786), 97.3 U/mL penicillin-streptomycin (Invitrogen, cat. 15140122), 1.9 mM L-glutamine (Invitrogen, cat. 25030081), and 9.7 microM Y-27632 dihydrochloride (Tocris Bioscience, Bristol, United Kingdom, cat. 1254). The PDCs were cultured in complete DMEM/F12 media without 10 microM Y-27632 dihydrochloride for at least two passages prior to the screen. The established cell lines NCI-H1341 and […] were cultured in DMEM/F-12, HEPES (Invitrogen, cat. 11330032), 5% defined fetal bovine serum (HyClone Laboratories Inc., cat. SH30070.03), ITS premix universal culture supplement [insulin (5 microg/mL), transferrin (5 microg/mL), and selenious acid (5 ng/mL)] […]
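Further: spheroids exposed to agents for seven days.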

Row | SMILES | IC50 (curve of compound) | viability, T/C (compound 0.0316 µM) | viability, T/C (compound 0.1 µM) | viability, T/C (compound 0.316 µM) | viability, T/C (compound 1 µM) | viability, T/C (compound 3.16 µM) | viability, T/C (compound 10 µM) | also measured
1 | Cc1ccccc1N=Nc1ccc(NC(=O)c2ccnn2C)c(C)c1 | – | – | 96.6% [middle of 19 runs] | – | 95.3% [middle of 20 runs] | – | – | IC50 (compound alone, run of 06/14/2022): > 10000 nM
2 | Cc1cncc(-c2nc(NCCc3c[nH]c4ccccc34)c3ncn(C(C)C)c3n2)c1 | – | – | 92.6% [middle of 20 runs] | 97% [middle of 20 runs] | 101% [middle of 20 runs] | – | 52% [middle of 20 runs] | –
3 | Nc1ccn(C2OC(CO)C(O)C2(F)F)c(=O)n1 (stereo unspecified) | – | 69.1% and 74.2% and 70.3% | 63.2% and 70.2% and 62.9% | 50.8% and 61.3% and 51.9% | 41.5% and 56.2% and 43.5% | 37.6% and 50.8% and 41.3% | 32.7% and 46.7% and 36.1% | –
4 | Nc1ncn(C2CC(O)C(CO)O2)c(=O)n1 (stereo unspecified) | > 1000 nM | 96.8% and 96.9% and 93.9% | 89.9% and 86.5% and 91.9% | 86.2% and 91.9% and 90.9% | 77.5% and 78.8% and 85.9% | – | – | viability, T/C (compound 0.00316 µM): 105% and 95.5% and 110%; viability, T/C (compound 0.01 µM): 106% and 102% and 111%
5 | Nc1ncn(C2CC(O)C(CO)S2)c(=O)n1 (stereo unspecified) | > 300 nM | – | – | – | – | – | – | viability, T/C (compound 0.000949 µM): 101% and 99.4% and 103%; viability, T/C (compound 0.003 µM): 96.3% and 106% and 112%; viability, T/C (compound 0.00949 µM): 98.4% and 110% and 100%; viability, T/C (compound 0.03 µM): 94.8% and 91% and 102%; viability, T/C (compound 0.0949 µM): 94.3% and 101% and 104%; viability, T/C (compound 0.3 µM): 86.8% and 100% and 89%
6 | O=C(C=Cc1cccc(S(=O)(=O)Nc2ccccc2)c1)NO | 3450 nM and 4200 nM and 3560 nM | 91.5% and 94.1% and 91.6% | 92.4% and 95.9% and 101% | 82.2% and 91.9% and 96.7% | 77% and 86.9% and 80.2% | 52.3% and 62.5% and 55.9% | 14.8% and 11.4% and 7.09% | –

More lines, main results first:

Row | IC50 (curve of compound) | SMILES | viability, T/C (compound 0.0316 µM) | viability, T/C (compound 0.1 µM) | viability, T/C (compound 0.316 µM) | viability, T/C (compound 1 µM) | viability, T/C (compound 3.16 µM) | viability, T/C (compound 10 µM) | also measured
7 | 66.2 nM and 65.3 nM and 132 nM | COc1cccc2c1C(=O)c1c(O)c3c(c(O)c1C2=O)CC(O)(C(=O)CO)CC3OC1CC(N)C(O)C(C)O1 (stereo unspecified) | 62.4% and 56% and 66.2% | 40.9% and 45.6% and 56.4% | 28.3% and 26.5% and 28.1% | 7.89% and 10.5% and 10.6% | 3.94% and 7.29% and 3.85% | 10.6% and 20.5% and 19.3% | –
8 | > 100 nM | Cn1ncnc1C1c2n[nH]c(=O)c3cc(F)cc(c23)NC1c1ccc(F)cc1 (stereo unspecified) | 94.2% and 95.2% and 105% | 95.5% and 91.8% and 103% | – | – | – | – | viability, T/C (compound 0.000316 µM): 94.2% and 105% and 97.9%; viability, T/C (compound 0.001 µM): 106% and 102% and 107%; viability, T/C (compound 0.00316 µM): 102% and 103% and 116%; viability, T/C (compound 0.01 µM): 91.6% and 96% and 101%
9 | > 10000 nM | NS(=O)(=O)OCC1CC(n2ccc3c(NC4CCc5ccccc54)ncnc32)CC1O (stereo unspecified) | 101% and 97.7% and 115% | 98.7% and 110% and 114% | 89.3% and 95.5% and 96% | 89.8% and 104% and 105% | 91.9% and 83.5% and 78.4% | 53.4% and 61.8% and 55.4% | –
10 | 3840 nM and 3930 nM and 4020 nM | Nc1ccccc1NC(=O)c1ccc(CNC(=O)OCc2cccnc2)cc1 | 98% and 89.6% and 98.3% | 102% and 87.1% and 81% | 83% and 80.2% and 77.3% | 81% and 70.5% and 65.6% | 57.5% and 63.4% and 69.3% | 16% and 12.8% and 13.9% | –
11 | 264 nM and 423 nM and 743 nM | O=C(C=Cn1cnc(-c2cc(C(F)(F)F)cc(C(F)(F)F)c2)n1)NNc1cnccn1 | – | – | – | – | – | – | viability, T/C (compound 0.00949 µM): 104% and 94.3% and 105%; viability, T/C (compound 0.03 µM): 73.3% and 78.8% and 101%; viability, T/C (compound 0.0949 µM): 61.6% and 77.7% and 76.8%; viability, T/C (compound 0.3 µM): 49.5% and 51.9% and 57.9%; viability, T/C (compound 0.949 µM): 40.9% and 40.5% and 50.6%; viability, T/C (compound 3 µM): 40.6% and 47.6% and 43%
12 | > 10000 nM | O=C(c1cc(Cc2n[nH]c(=O)c3ccccc23)ccc1F)N1CCN(C(=O)C2CC2)CC1 | 107% and 92.7% and 109% | 102% and 99.8% and 95.5% | 96.7% and 98.2% and 106% | 98.8% and 93.7% and 86.1% | 97.4% and 95.6% and 95.2% | 86% and 84.6% and 77.5% | –
